Results reported in patent US12252524B2, “GIP/GLP1 co-agonist compounds” (Eli Lilly and Company, priority 2018, dated 2025).
Numbered stars: 1 amine (or outer) side, 2 acyl side, 3 side chain; on linkers, the order of the positions; unused ones are H or OH. Square brackets hold non-standard residues; d marks the D form. Side chains are listed from the residue outwards. Peptide text beside a SMILES is read from it. * marks the point of attachment. C18 diacid = O=C(O)CCCCCCCCCCCCCCCCC(=O)*; γGlu = O=C(O)[C@H](CCC(=O)[*:2])N[*:1]; AEEA = NCCOCCOCC(=O)O; Aib = CC(C)(N)C(=O)O

Key:
human Gcg receptor = target: T1, human Gcg receptor (Homo sapiens, UniProt P47871); assay: [125I]-Glucagon binding (SPA), human Gcg receptor; conditions: read-out: hGLcgR Ki, nM (SEM, n)
T1 construct: expressed in transfected cells; crude membranes
T1 sequence (P47871 26-477): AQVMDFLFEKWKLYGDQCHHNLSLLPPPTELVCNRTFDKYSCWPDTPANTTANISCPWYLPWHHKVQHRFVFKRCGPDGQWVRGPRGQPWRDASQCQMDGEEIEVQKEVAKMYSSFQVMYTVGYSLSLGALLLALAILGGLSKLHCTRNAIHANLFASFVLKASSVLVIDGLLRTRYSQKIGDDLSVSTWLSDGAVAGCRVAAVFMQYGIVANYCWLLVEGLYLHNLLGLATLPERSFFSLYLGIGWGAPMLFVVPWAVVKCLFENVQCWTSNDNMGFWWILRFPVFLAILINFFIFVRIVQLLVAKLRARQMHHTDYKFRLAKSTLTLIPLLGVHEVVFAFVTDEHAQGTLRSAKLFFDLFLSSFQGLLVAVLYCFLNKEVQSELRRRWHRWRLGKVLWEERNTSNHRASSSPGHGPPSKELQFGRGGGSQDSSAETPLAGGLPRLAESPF
Method in brief: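 Crude membranes from cells expressing the receptor, prepared by hypotonic lysis in 50 mM Tris HCl pH 7.5 with protease inhibitors, homogenization and differential centrifugation, were used in a WGA-bead SPA. Binding buffer: 25 mM HEPES pH 7.4, 2.5 mM CaCl2, 1 mM MgCl2, bacitracin, Tween-20.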

human GIP receptor = target: T2, human GIP receptor (Homo sapiens, UniProt P48546); assay: [125I]-GIP binding (SPA), human GIP receptor; conditions: read-out: hGIPR Ki, nM (SEM, n)
T2 construct: expressed in transfected cells; crude membranes
T2 sequence (P48546 22-466): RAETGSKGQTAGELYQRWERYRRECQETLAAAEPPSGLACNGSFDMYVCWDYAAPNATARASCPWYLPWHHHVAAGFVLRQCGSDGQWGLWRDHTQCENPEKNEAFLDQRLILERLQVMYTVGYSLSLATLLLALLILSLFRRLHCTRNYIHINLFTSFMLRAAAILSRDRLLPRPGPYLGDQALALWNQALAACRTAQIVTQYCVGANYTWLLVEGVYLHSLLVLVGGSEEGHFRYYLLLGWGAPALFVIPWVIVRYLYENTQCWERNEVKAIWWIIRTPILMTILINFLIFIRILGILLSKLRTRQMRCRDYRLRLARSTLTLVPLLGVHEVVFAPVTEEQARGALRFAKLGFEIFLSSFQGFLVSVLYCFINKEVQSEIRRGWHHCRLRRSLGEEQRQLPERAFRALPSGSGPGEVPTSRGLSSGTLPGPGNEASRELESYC

[1] = target: human GLP-1 receptor (GLP-1R) (Homo sapiens, UniProt P43220); assay: cAMP pharmacological functional assay in presence of casein, hGLP-1R; type: cell-based; conditions: HEK293 cells expressing hGLP-1R, 0.1% Casein, geometric mean; read-out: hGLP1R cAMP Rel EC50 nM (SEM, n)
human GLP-1 receptor (GLP-1R), sequence (P43220 24-463): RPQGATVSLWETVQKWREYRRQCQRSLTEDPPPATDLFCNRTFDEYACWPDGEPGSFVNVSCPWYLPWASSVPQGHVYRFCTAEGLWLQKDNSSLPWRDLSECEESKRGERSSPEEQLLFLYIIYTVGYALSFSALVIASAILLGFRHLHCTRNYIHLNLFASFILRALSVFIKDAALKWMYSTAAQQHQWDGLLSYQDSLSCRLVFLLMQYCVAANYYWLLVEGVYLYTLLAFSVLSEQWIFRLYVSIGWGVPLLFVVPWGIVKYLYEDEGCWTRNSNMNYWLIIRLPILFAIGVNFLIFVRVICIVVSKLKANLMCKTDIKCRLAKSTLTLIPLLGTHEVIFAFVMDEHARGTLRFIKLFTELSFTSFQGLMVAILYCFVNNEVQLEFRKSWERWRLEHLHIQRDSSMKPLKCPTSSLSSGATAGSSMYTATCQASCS

[2] = target: T3, gastric inhibitory peptide receptor (GIPR) (Homo sapiens, UniProt P48546); assay: cAMP pharmacological functional assay in presence of casein, hGIPR; type: cell-based; conditions: HEK293 cells expressing hGIPR, 0.1% Casein, geometric mean; read-out: hGIPR cAMP Rel EC50 nM (SEM, n)
T3 sequence (P48546 22-466): T2 sequence (P48546 22-466)

human GLP-1R = human GLP-1R (Homo sapiens, UniProt P43220); assay: [125I]-GLP-1 binding (SPA), human GLP-1 receptor; design: expressed in transfected cells; crude membranes; conditions: read-out: hGLP1R Ki, (nM) (SEM, n)
human GLP-1R, sequence (P43220 24-463): as above
Method in brief: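 Assay buffer: HEPES 25 mM, pH 7.4, CaCl2 2.5 mM, MgCl2 1 mM, with EDTA-free protease inhibitors. Receptor came from crude cell membranes prepared by homogenization and centrifugation at 4° C. IC50s came from four-parameter fits (maximum, minimum, IC50, Hill slope) and were expressed as Ki geometric means with SEM.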

Row | Ki (human Gcg receptor) | Ki (human GIP receptor) | EC50 [1] | EC50 [2] | Ki (human GLP-1R) | Structure (SMILES)
1 | > 1150 nM | 0.107 nM | 0.0352 nM | 0.334 nM | 5.09 nM | CC[C@H](C)[C@H](NC(=O)[C@H](CC(C)C)NC(=O)[C@H](Cc1ccc(O)cc1)NC(=O)[C@H](CCC(=O)O)NC(=O)[C@@H](NC(=O)[C@H](Cc1ccccc1)NC(=O)[C@H](CCC(=O)O)NC(=O)C(C)(C)NC(=O)[C@H](CCC(N)=O)NC(=O)[C@H](C)NC(=O)[C@H](CCCCNC(=O)COCCOCCNC(=O)COCCOCCNC(=O)CC[C@H](NC(=O)CCCCCCCCCCCCCCCCC(=O)O)C(=O)O)NC(=O)[C@H](CCCCN)NC(=O)[C@H](CC(=O)O)NC(=O)[C@H](CC(C)C)NC(=O)[C@H](CC(C)C)NC(=O)[C@@H](NC(=O)[C@H](CO)NC(=O)[C@H](Cc1ccc(O)cc1)NC(=O)[C@H](CC(=O)O)NC(=O)[C@H](CO)NC(=O)[C@@H](NC(=O)[C@H](Cc1ccccc1)NC(=O)[C@@H](NC(=O)CNC(=O)[C@H](CCC(=O)O)NC(=O)C(C)(C)NC(=O)[C@@H](N)Cc1ccc(O)cc1)[C@@H](C)O)[C@@H](C)O)[C@@H](C)CC)[C@@H](C)CC)C(=O)N[C@@H](CCC(=O)O)C(=O)NCC(=O)NCC(N)=O [Example 271] (H-Y[Aib]EGTFTSDYSILLDKK([AEEA-AEEA-γGlu-C18 diacid])AQ[Aib]EFIEYLIEGG-NH2)
2 | 724 nM | 0.0698 nM | 0.0352 nM | 0.079 nM | 1.13 nM | CC[C@H](C)[C@H](NC(=O)[C@H](CC(C)C)NC(=O)[C@H](Cc1ccc(O)cc1)NC(=O)[C@H](CCC(=O)O)NC(=O)[C@@H](NC(=O)[C@H](Cc1ccccc1)NC(=O)[C@H](C)NC(=O)C(C)(C)NC(=O)[C@H](CCC(N)=O)NC(=O)[C@H](C)NC(=O)[C@H](CCCCNC(=O)COCCOCCNC(=O)COCCOCCNC(=O)CC[C@H](NC(=O)CCCCCCCCCCCCCCCCC(=O)O)C(=O)O)NC(=O)[C@H](CCCCN)NC(=O)[C@H](CC(=O)O)NC(=O)[C@H](CC(C)C)NC(=O)[C@H](CC(C)C)NC(=O)[C@@H](NC(=O)[C@H](CO)NC(=O)[C@H](Cc1ccc(O)cc1)NC(=O)[C@H](CC(=O)O)NC(=O)[C@H](CO)NC(=O)[C@@H](NC(=O)[C@H](Cc1ccccc1)NC(=O)[C@@H](NC(=O)CNC(=O)[C@H](CCC(=O)O)NC(=O)C(C)(C)NC(=O)[C@@H](N)Cc1ccc(O)cc1)[C@@H](C)O)[C@@H](C)O)[C@@H](C)CC)[C@@H](C)CC)C(=O)N[C@@H](C)C(=O)NCC(=O)NCC(N)=O [Example 273] (H-Y[Aib]EGTFTSDYSILLDKK([AEEA-AEEA-γGlu-C18 diacid])AQ[Aib]AFIEYLIAGG-NH2)
3 | 629 nM | 0.205 nM | 0.185 nM | 0.183 nM | 2.92 nM | CC[C@H](C)[C@H](NC(=O)[C@H](CC(C)C)NC(=O)[C@H](Cc1ccc(O)cc1)NC(=O)[C@H](CCC(=O)O)NC(=O)[C@@H](NC(=O)[C@H](Cc1ccccc1)NC(=O)[C@H](C)NC(=O)[C@H](CCC(N)=O)NC(=O)[C@H](CCC(N)=O)NC(=O)[C@H](C)NC(=O)[C@H](CCCCNC(=O)COCCOCCNC(=O)COCCOCCNC(=O)CC[C@H](NC(=O)CCCCCCCCCCCCCCCCC(=O)O)C(=O)O)NC(=O)[C@H](CCCCN)NC(=O)[C@H](CC(=O)O)NC(=O)[C@H](CC(C)C)NC(=O)[C@H](CC(C)C)NC(=O)[C@@H](NC(=O)[C@H](CO)NC(=O)[C@H](Cc1ccc(O)cc1)NC(=O)[C@H](CC(=O)O)NC(=O)[C@H](CO)NC(=O)[C@@H](NC(=O)[C@H](Cc1ccccc1)NC(=O)[C@@H](NC(=O)CNC(=O)[C@H](CCC(=O)O)NC(=O)C(C)(C)NC(=O)[C@@H](N)Cc1ccc(O)cc1)[C@@H](C)O)[C@@H](C)O)[C@@H](C)CC)[C@@H](C)CC)C(=O)N[C@@H](CCC(=O)O)C(=O)NCC(=O)NCC(N)=O [Example 294] (H-Y[Aib]EGTFTSDYSILLDKK([AEEA-AEEA-γGlu-C18 diacid])AQQAFIEYLIEGG-NH2)
4 | > 1000 nM | 0.181 nM | 0.116 nM | 0.281 nM | 4.12 nM | CC[C@H](C)[C@H](NC(=O)[C@H](CC(C)C)NC(=O)[C@H](Cc1ccc(O)cc1)NC(=O)[C@H](CCC(=O)O)NC(=O)[C@@H](NC(=O)[C@H](Cc1ccccc1)NC(=O)[C@H](C)NC(=O)[C@H](Cc1c[nH]cn1)NC(=O)[C@H](CCC(N)=O)NC(=O)[C@H](C)NC(=O)[C@H](CCCCNC(=O)COCCOCCNC(=O)COCCOCCNC(=O)CC[C@H](NC(=O)CCCCCCCCCCCCCCCCC(=O)O)C(=O)O)NC(=O)[C@H](CCCCN)NC(=O)[C@H](CC(=O)O)NC(=O)[C@H](CC(C)C)NC(=O)[C@H](CC(C)C)NC(=O)[C@@H](NC(=O)[C@H](CO)NC(=O)[C@H](Cc1ccc(O)cc1)NC(=O)[C@H](CC(=O)O)NC(=O)[C@H](CO)NC(=O)[C@@H](NC(=O)[C@H](Cc1ccccc1)NC(=O)[C@@H](NC(=O)CNC(=O)[C@H](CCC(=O)O)NC(=O)C(C)(C)NC(=O)[C@@H](N)Cc1ccc(O)cc1)[C@@H](C)O)[C@@H](C)O)[C@@H](C)CC)[C@@H](C)CC)C(=O)N[C@@H](CCC(=O)O)C(=O)NCC(=O)NCC(N)=O [Example 295] (H-Y[Aib]EGTFTSDYSILLDKK([AEEA-AEEA-γGlu-C18 diacid])AQHAFIEYLIEGG-NH2)
5 | > 1000 nM | 0.444 nM | 0.0867 nM | 0.198 nM | 3.33 nM | CC[C@H](C)[C@H](NC(=O)[C@H](CC(C)C)NC(=O)[C@H](Cc1ccc(O)cc1)NC(=O)[C@H](CCC(=O)O)NC(=O)[C@@H](NC(=O)[C@H](Cc1ccccc1)NC(=O)[C@H](C)NC(=O)[C@H](CCCCN)NC(=O)[C@H](CCC(N)=O)NC(=O)[C@H](C)NC(=O)[C@H](CCCCNC(=O)COCCOCCNC(=O)COCCOCCNC(=O)CC[C@H](NC(=O)CCCCCCCCCCCCCCCCC(=O)O)C(=O)O)NC(=O)[C@H](CCCCN)NC(=O)[C@H](CC(=O)O)NC(=O)[C@H](CC(C)C)NC(=O)[C@H](CC(C)C)NC(=O)[C@@H](NC(=O)[C@H](CO)NC(=O)[C@H](Cc1ccc(O)cc1)NC(=O)[C@H](CC(=O)O)NC(=O)[C@H](CO)NC(=O)[C@@H](NC(=O)[C@H](Cc1ccccc1)NC(=O)[C@@H](NC(=O)CNC(=O)[C@H](CCC(=O)O)NC(=O)C(C)(C)NC(=O)[C@@H](N)Cc1ccc(O)cc1)[C@@H](C)O)[C@@H](C)O)[C@@H](C)CC)[C@@H](C)CC)C(=O)N[C@@H](CCC(=O)O)C(=O)NCC(=O)NCC(=O)N1CCC[C@H]1C(=O)N[C@@H](CO)C(=O)N[C@@H](CO)C(=O)NCC(N)=O [Example 296] (H-Y[Aib]EGTFTSDYSILLDKK([AEEA-AEEA-γGlu-C18 diacid])AQKAFIEYLIEGGPSSG-NH2)
6 | > 1240 nM | 0.0958 nM | 0.111 nM | 0.0451 nM | 2.98 nM | CC[C@H](C)[C@H](NC(=O)[C@H](CC(C)C)NC(=O)[C@H](Cc1ccc(O)cc1)NC(=O)[C@H](CCC(=O)O)NC(=O)[C@@H](NC(=O)[C@H](Cc1ccccc1)NC(=O)[C@H](CCC(=O)O)NC(=O)C(C)(C)NC(=O)[C@H](CCC(N)=O)NC(=O)[C@H](C)NC(=O)[C@H](CCCCNC(=O)COCCOCCNC(=O)COCCOCCNC(=O)CC[C@H](NC(=O)CCCCCCCCCCCCCCCCC(=O)O)C(=O)O)NC(=O)[C@H](CCCCN)NC(=O)[C@H](CC(=O)O)NC(=O)[C@H](CC(C)C)NC(=O)[C@H](CC(C)C)NC(=O)[C@@H](NC(=O)[C@H](CO)NC(=O)[C@H](Cc1ccc(O)cc1)NC(=O)[C@H](CC(=O)O)NC(=O)[C@H](CO)NC(=O)[C@@H](NC(=O)[C@H](Cc1ccccc1)NC(=O)[C@@H](NC(=O)CNC(=O)[C@H](CCC(=O)O)NC(=O)C(C)(C)NC(=O)[C@@H](N)Cc1ccc(O)cc1)[C@@H](C)O)[C@@H](C)O)[C@@H](C)CC)[C@@H](C)CC)C(=O)N[C@@H](C)C(=O)NCC(=O)NCC(N)=O [Example 297] (H-Y[Aib]EGTFTSDYSILLDKK([AEEA-AEEA-γGlu-C18 diacid])AQ[Aib]EFIEYLIAGG-NH2)
